From US20240325398A1, “COMBINATION THERAPIES” (Infinity Pharmaceuticals, Inc., priority 2014, published 2024)

Tests used:
Test in all cases: Combination study, ATPLite 72 h, dose matrix (Synergy Score, CI50)
HH = format: cell-based; settings: combination with Compound 1
Protocol: The method is described as follows.
Additive effect is CI=1.0. […] Antagonistic effect is CI>1.0.
The Synergy Score is calculated as: […]

HBL-1 = settings: combination with Compound 1, 72 h
OCI-Ly3 = settings: combination with Compound 1; OCI-Ly3; 72 h
Protocol: (§1) Cells are thawed from a liquid nitrogen preserved state. Once cells have been expanded and divide at their expected doubling times, screening begins. Cells are seeded in growth media in either black 1536-well or 384-well tissue culture treated plates. Cells are then equilibrated in assay plates via centrifugation and placed in incubators attached to the Dosing Modules at 37° C. for 24 hours before treatment. […] These Tzero (To) plates are read using ultra-sensitive luminescence on Envision plate readers (Perkin Elmer). Treated assay plates are incubated with compound for 72 hours. After 72 hours, plates are developed for endpoint analysis using ATPLite. All data points are collected via automated processes, quality controlled and analyzed using Zalicus software.
(§2) where T is treated cell count and V is untreated (vehicle) cell count (at 72 hours). I ranges from 0% (when T=V) to 100% (when T=0). […] The measure of effect in the experiment can be the inhibition of cellular response relative to the untreated level (vehicle alone). […] The inhibition ranges from 0% at the untreated level to 100% when T=0. Inhibition levels are negative for agents that actually increase levels. Other effect measures, such as an activity ratio r=T/V may be more appropriate for some assays. When activity ratios (e.g, fold increase over stimulated control) are being used, the effect can be measured using an induction 1=ln(T/V). With this definition, all effect expressions are the same as for inhibition.
(§3) Growth Inhibition (GI) is used as a measure of cell viability. […] A GI reading of 100% represents complete growth inhibition—T72 compound-treated and T0 vehicle signals are matched. […] A GI reading of 200% represents complete death of all cells in the culture well. Compounds reaching an activity plateau of GI 200% are considered cytotoxic. GI is calculated by applying the following test and equation:
(§4) Combination analysis data were collected in a 6×6 dose matrix. Synergy is calculated by comparing a combination's response to those of its single compound, against the drug-with-itself dose-additive reference model. Deviations from dose additivity may be assessed visually on an isobologram or numerically with a Combination Index (CI). […] Additive effect is CI=1.0. […] Antagonistic effect is CI>1.0.
(§5) To measure combination effects in excess of Loewe additivity, a scalar measure to characterize the strength of synergistic interaction termed the Synergy Score is devised. The Synergy Score is calculated as:
(§6) The fractional inhibition for each component agent and combination point in the matrix is calculated relative to the median of all vehicle-treated control wells. The Synergy Score equation integrates the experimentally-observed activity volume at each point in the matrix in excess of a model surface numerically derived from the activity of the component agents using the Loewe model for additivity. Additional terms in the Synergy Score equation (above) are used to normalize for various dilution factors used for individual agents and to allow for comparison of synergy scores across an entire experiment. The inclusion of positive inhibition gating or an Idata multiplier removes noise near the zero effect level, and biases results for synergistic interactions at that occur at high activity levels.
(§7) Loewe Volume (Loewe Vol) is used to assess the overall magnitude of the combination interaction in excess of the Loewe additivity model. Loewe Volume is particularly useful when distinguishing synergistic increases in a phenotypic activity (positive Loewe Volume) versus synergistic antagonisms (negative Loewe Volume). […] This model defines additivity as a non-synergistic combination interaction where the combination dose matrix surface should be indistinguishable from either drug crossed with itself. The calculation for Loewe additivity is:

U-2932 = settings: combination with Compound 1, 72 h
Protocol: as §1, §2, §3, §4, §5, §6, §7

TMD8 = settings: combination with Compound 1; TMD8; 72 h
OCI-Ly7 = settings: combination with Compound 1, 72 h
SU-DHL-4-epst = settings: combination with Compound 1, 72 h
DOHH-2 = settings: combination with Compound 1, 72 h
Farage = settings: combination with Compound 1; Farage; 72 h
SU-DHL-10-epst = settings: combination with Compound 1, 72 h
RL = settings: combination with Compound 1, 72 h
KARPAS-422 = settings: combination with Compound 1, 72 h
WSU-NHL = settings: combination with Compound 1, 72 h
Protocol: as §1, §2, §3, §4, §5, §6
(§8) Loewe Volume (Loewe Vol) is used to assess the overall magnitude of the combination interaction in excess of the Loewe additivity model. Loewe Volume is particularly useful when distinguishing synergistic increases in a phenotypic activity (positive Loewe Volume) versus synergistic antagonisms (negative Loewe Volume). […] This model defines additivity as a non-synergistic combination interaction where the combination dose matrix surface should be indistinguishable from either drug crossed with itself.

KARPAS-299 = settings: combination with Compound 1
GRANTA-519 = settings: combination with Compound 1
Jeko-1 = settings: combination with Compound 1
Protocol: as §1, §2, §3, §4, §5, §6, §8

Mino = settings: combination with Compound 1
NCI-H929 = settings: combination with Compound 1
OMP-2 = settings: combination with Compound 1; OPM-2
RPMI-8226 = settings: combination with Compound 1

O=C(Nc1ccc2[nH]nc(-c3ccncc3)c2c1)[C@@H]1CCN(CC(=O)N2CCN(c3ccc(-c4ncccn4)cc3)CC2)C1 [SCH772984, (R)-1-(2-oxo-2-(4-(4-(pyrimidin-2-yl)phenyl)piperazin-1-yl)ethyl)-N-(3-(pyridin-4-yl)-1H-indazol-5-yl)pyrrolidine-3-carboxamide]
CI50 growth inhibition (HH): T (T=0.5 to <0.7)
CI50 inhibition (HH): S (S=0.01 to <0.5)
Synergy Score growth inhibition (HH): A1 (A1=0.0001 to <1)
Synergy Score inhibition (HH): A1 (A1=0.0001 to <1)
CI50 growth inhibition (HBL-1): T (T=0.5 to <0.7)
Synergy Score growth inhibition (HBL-1): A1 (A1=0.0001 to <1)
Synergy Score inhibition (HBL-1): A1 (A1=0.0001 to <1)
CI50 growth inhibition (OCI-Ly3): W (W=≥1)
Synergy Score growth inhibition (OCI-Ly3): A1 (A1=0.0001 to <1)
Synergy Score inhibition (OCI-Ly3): A1 (A1=0.0001 to <1)
CI50 growth inhibition (U-2932): W (W=≥1)
Synergy Score growth inhibition (U-2932): A1 (A1=0.0001 to <1)
Synergy Score inhibition (U-2932): A1 (A1=0.0001 to <1)
CI50 growth inhibition (TMD8): T (T=0.5 to <0.7)
CI50 inhibition (TMD8): U (U=0.7 to <1)
Synergy Score growth inhibition (TMD8): A1 (A1=0.0001 to <1)
Synergy Score inhibition (TMD8): A1 (A1=0.0001 to <1)
Synergy Score growth inhibition (OCI-Ly7): A1 (A1=0.0001 to <1)
Synergy Score inhibition (OCI-Ly7): A1 (A1=0.0001 to <1)
CI50 growth inhibition (SU-DHL-4-epst): W (W=≥1)
Synergy Score growth inhibition (SU-DHL-4-epst): A1 (A1=0.0001 to <1)
Synergy Score inhibition (SU-DHL-4-epst): A1 (A1=0.0001 to <1)
CI50 growth inhibition (DOHH-2): W (W=≥1)
CI50 inhibition (DOHH-2): W (W=≥1)
Synergy Score growth inhibition (DOHH-2): A1 (A1=0.0001 to <1)
Synergy Score inhibition (DOHH-2): A1 (A1=0.0001 to <1)
CI50 growth inhibition (Farage): T (T=0.5 to <0.7)
CI50 inhibition (Farage): W (W=≥1)
Synergy Score growth inhibition (Farage): A1 (A1=0.0001 to <1)
Synergy Score inhibition (Farage): A1 (A1=0.0001 to <1)
CI50 growth inhibition (SU-DHL-10-epst): T (T=0.5 to <0.7)
CI50 inhibition (SU-DHL-10-epst): W (W=≥1)
Synergy Score growth inhibition (SU-DHL-10-epst): A2 (A2=1 to <3)
Synergy Score inhibition (SU-DHL-10-epst): A2 (A2=1 to <3)
Synergy Score growth inhibition (RL): A1 (A1=0.0001 to <1)
Synergy Score inhibition (RL): A1 (A1=0.0001 to <1)
CI50 growth inhibition (KARPAS-422): T (T=0.5 to <0.7)
CI50 inhibition (KARPAS-422): W (W=≥1)
Synergy Score growth inhibition (KARPAS-422): A1 (A1=0.0001 to <1)
Synergy Score inhibition (KARPAS-422): A1 (A1=0.0001 to <1)
CI50 growth inhibition (WSU-NHL): U (U=0.7 to <1)
CI50 inhibition (WSU-NHL): U (U=0.7 to <1)
Synergy Score growth inhibition (WSU-NHL): A1 (A1=0.0001 to <1)
Synergy Score inhibition (WSU-NHL): A1 (A1=0.0001 to <1)
Synergy Score growth inhibition (KARPAS-299): A1 (A1=0.0001 to <1)
Synergy Score inhibition (KARPAS-299): A1 (A1=0.0001 to <1)
Synergy Score growth inhibition (GRANTA-519): A1 (A1=0.0001 to <1)
Synergy Score inhibition (GRANTA-519): A1 (A1=0.0001 to <1)
CI50 growth inhibition (Jeko-1): W (W=≥1)
Synergy Score growth inhibition (Jeko-1): A1 (A1=0.0001 to <1)
Synergy Score inhibition (Jeko-1): A1 (A1=0.0001 to <1)
CI50 growth inhibition (Mino): W (W=≥1)
Synergy Score growth inhibition (Mino): A1 (A1=0.0001 to <1)
Synergy Score inhibition (Mino): A1 (A1=0.0001 to <1)
CI50 growth inhibition (NCI-H929): W (W=≥1)
CI50 inhibition (NCI-H929): W (W=≥1)
Synergy Score growth inhibition (NCI-H929): A1 (A1=0.0001 to <1)
Synergy Score inhibition (NCI-H929): A1 (A1=0.0001 to <1)
Synergy Score growth inhibition (OMP-2): A1 (A1=0.0001 to <1)
Synergy Score inhibition (OMP-2): A1 (A1=0.0001 to <1)
Synergy Score growth inhibition (RPMI-8226): A1 (A1=0.0001 to <1)
Synergy Score inhibition (RPMI-8226): A1 (A1=0.0001 to <1)
